The text below walks through data of ChEMBL document CHEMBL4270597, “Donepezil-butylated hydroxytoluene (BHT) hybrids as Anti-Alzheimer's disease agents with cholinergic, antioxidant, and neuroprotective properties” (Eur J Med Chem, 2018).

Assay [1] addresses Acetylcholinesterase (Electrophorus electricus, UniProt O42275). Description: Inhibition of electric eel AChE using acetylthiocholine chloride as substrate incubated for 5 mins followed by substrate addition measured after 180 secs by Ellman's method. A general note: DTNB colorimetry detects thiols as they appear.
For assay [2], the target named is Cholinesterase (Equus caballus) (UniProt P81908). Description: Inhibition of equine serum BuChE at 100 uM using butyrylthiocholine iodide as substrate incubated for 5 mins followed by substrate addition measured after 180 secs by Ellman's method relative to control.
Chain of Cholinesterase (Equus caballus) (P81908 whole entry): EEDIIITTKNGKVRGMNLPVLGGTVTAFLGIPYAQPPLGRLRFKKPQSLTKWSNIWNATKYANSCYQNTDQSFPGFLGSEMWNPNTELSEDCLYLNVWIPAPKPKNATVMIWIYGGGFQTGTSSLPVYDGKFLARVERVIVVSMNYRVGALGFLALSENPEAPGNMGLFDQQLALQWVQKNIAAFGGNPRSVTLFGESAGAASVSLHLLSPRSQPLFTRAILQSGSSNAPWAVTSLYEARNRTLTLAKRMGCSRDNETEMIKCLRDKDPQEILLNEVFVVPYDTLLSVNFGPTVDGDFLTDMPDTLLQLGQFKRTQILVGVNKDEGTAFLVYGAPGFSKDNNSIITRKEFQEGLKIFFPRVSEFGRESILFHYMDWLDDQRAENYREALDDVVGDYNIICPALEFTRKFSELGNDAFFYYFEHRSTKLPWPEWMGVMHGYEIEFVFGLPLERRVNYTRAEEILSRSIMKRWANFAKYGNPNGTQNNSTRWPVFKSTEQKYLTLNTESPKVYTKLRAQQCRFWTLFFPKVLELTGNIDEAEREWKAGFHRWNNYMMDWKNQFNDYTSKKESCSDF
In assay [3] the target is Acetylcholinesterase (Homo sapiens, UniProt P22303). Description: Inhibition of human erythrocyte AChE using acetylthiocholine chloride as substrate incubated for 5 mins followed by substrate addition measured after 180 secs by Ellman's method.
Chain of Acetylcholinesterase (Homo sapiens, UniProt P22303) (P22303 whole entry): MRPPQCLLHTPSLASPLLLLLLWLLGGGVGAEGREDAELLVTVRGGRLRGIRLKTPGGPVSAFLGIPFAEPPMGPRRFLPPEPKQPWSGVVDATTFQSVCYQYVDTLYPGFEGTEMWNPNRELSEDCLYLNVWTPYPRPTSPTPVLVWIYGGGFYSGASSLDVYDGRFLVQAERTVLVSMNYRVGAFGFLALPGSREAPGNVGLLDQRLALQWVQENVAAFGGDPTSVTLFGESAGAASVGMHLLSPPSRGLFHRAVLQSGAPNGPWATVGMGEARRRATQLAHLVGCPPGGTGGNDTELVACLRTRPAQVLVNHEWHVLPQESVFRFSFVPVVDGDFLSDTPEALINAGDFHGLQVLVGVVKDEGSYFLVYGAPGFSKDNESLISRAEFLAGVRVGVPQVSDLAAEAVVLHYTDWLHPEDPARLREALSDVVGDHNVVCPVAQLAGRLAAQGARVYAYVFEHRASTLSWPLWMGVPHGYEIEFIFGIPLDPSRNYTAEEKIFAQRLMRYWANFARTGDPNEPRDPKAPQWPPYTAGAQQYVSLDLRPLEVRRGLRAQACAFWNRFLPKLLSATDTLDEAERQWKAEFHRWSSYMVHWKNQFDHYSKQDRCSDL
A further assay has as its target Cholinesterase (Homo sapiens, UniProt P06276). The experiment in a line: Inhibition of human serum BuChE using butyrylthiocholine iodide as substrate incubated for 5 mins followed by substrate addition measured after 180 secs by Ellman's method.
Assay [4] deals with T1, Amine oxidase [flavin-containing] A (Homo sapiens, UniProt P21397).
T1 sequence (P21397 whole entry): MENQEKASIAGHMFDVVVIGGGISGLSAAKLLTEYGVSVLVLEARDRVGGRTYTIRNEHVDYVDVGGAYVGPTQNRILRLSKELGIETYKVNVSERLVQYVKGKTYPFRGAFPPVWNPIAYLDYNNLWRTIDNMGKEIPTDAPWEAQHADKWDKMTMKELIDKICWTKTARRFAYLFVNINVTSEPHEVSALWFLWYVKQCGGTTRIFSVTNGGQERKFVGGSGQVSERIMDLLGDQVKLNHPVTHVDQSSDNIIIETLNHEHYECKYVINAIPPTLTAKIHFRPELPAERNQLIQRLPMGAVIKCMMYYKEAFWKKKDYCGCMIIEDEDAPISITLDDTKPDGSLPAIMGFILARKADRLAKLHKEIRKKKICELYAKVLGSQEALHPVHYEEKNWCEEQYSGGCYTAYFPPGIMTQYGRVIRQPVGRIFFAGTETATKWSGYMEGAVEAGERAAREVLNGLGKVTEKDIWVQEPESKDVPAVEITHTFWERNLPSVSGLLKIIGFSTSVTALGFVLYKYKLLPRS
Description: Inhibition of human MAO-A using p-tyramine as substrate incubated for 15 mins followed by substrate addition measured for 20 mins by fluorescence assay.

For assay [5], the target named is T2, Amine oxidase [flavin-containing] B (Homo sapiens, UniProt P27338).
T2 sequence (P27338 whole entry): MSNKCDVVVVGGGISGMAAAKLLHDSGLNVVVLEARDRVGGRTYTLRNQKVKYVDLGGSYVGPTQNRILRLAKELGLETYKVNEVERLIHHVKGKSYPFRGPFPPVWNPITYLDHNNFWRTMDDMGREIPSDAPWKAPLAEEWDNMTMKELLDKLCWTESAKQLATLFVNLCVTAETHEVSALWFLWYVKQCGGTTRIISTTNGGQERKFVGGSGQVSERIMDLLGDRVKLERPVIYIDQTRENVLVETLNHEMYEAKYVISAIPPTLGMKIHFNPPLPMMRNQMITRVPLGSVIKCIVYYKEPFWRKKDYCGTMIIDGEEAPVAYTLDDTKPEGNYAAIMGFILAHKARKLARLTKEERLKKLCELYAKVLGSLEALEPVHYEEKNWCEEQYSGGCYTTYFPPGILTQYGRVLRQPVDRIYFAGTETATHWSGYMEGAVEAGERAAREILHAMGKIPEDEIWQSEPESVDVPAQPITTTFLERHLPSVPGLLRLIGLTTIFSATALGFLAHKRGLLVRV
Description: Inhibition of human MAO-B using p-tyramine as substrate incubated for 15 mins followed by substrate addition measured for 20 mins by fluorescence assay.

Assay [6] is described as follows: Antioxidant activity assessed as DPPH radical scavenging activity measured after 30 mins incubation in dark by UV-Visible spectrophotometric analysis. Format: functional. A general note: DPPH is a stable violet radical that fades when it is reduced.
A short description of assay [7]: Antioxidant activity assessed as ABTS radical cation scavenging activity by measuring trolox equivalent antioxidant capacity measured at 6 mins. Format: functional.
Assay [8] is described as follows: Antioxidant activity assessed as trolox equivalent of AAPH-induced radical scavenging activity preincubated for 15 mins followed by AAPH addition measured every minute for 120 mins by ORAC-FL based fluorescein assay. Format: functional.

Chain of Acetylcholinesterase (Electrophorus electricus, UniProt O42275) (O42275 whole entry): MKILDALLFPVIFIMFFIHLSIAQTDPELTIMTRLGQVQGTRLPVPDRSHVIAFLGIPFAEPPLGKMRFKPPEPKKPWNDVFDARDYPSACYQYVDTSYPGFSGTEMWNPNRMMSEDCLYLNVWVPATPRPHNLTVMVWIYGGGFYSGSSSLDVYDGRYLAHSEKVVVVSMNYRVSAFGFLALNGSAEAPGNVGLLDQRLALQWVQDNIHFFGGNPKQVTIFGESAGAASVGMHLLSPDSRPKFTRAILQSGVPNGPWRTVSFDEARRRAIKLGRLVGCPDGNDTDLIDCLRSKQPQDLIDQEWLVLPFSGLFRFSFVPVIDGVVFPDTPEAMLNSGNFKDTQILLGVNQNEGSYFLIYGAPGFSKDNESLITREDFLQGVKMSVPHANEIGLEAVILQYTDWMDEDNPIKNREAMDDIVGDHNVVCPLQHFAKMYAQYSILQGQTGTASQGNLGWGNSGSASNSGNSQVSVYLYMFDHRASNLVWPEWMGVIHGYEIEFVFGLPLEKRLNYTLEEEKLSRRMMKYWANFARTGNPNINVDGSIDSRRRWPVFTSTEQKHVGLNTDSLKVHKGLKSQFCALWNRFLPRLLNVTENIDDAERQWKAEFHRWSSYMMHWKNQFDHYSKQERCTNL
Chain of Cholinesterase (P06276 whole entry): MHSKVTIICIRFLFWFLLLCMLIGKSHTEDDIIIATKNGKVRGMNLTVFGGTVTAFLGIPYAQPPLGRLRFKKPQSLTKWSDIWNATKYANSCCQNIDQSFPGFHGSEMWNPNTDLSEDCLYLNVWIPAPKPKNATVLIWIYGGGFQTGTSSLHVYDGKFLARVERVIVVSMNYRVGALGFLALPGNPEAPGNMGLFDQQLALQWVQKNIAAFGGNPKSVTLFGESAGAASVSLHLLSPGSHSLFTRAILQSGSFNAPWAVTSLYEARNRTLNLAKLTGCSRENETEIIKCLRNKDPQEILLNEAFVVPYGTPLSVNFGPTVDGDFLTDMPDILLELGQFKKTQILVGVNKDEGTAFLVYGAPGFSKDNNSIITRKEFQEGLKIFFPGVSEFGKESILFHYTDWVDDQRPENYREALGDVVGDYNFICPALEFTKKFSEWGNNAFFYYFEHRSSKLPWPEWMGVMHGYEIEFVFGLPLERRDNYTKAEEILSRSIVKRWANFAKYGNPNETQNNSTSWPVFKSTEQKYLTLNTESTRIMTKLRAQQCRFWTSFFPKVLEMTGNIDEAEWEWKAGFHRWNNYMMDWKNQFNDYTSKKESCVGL

In the case of `CC(C)(C)c1cc(/C=C/C(=O)NCCC2CCN(Cc3ccc(Br)cc3)CC2)cc(C(C)(C)C)c1O`, the IC50 on Acetylcholinesterase [1] is 1.32 µM; on Acetylcholinesterase [3], 3.81 µM; against Cholinesterase, “Not Active”; in assay [4] it was 73.2 µM; in assay [5], 13.2 µM; in assay [6], 85.6 µM. In assay [2], this molecule returned an inhibition of 38.9%. Besides, the Activity (mmolequiv/mmol) in [7] was found to be 0.77; in [8], 1.59.

For the molecule `CC(C)(C)c1cc(/C=C/C(=O)NCCC2CCN(Cc3ccc(F)cc3)CC2)cc(C(C)(C)C)c1O`, the IC50 on Acetylcholinesterase [1] was 0.32 µM; at Acetylcholinesterase [3], 0.98 µM; against Cholinesterase, “Not Active”; in [4], 59.6 µM; in assay [5], 11.1 µM; in [6], 57.5 µM. This molecule showed an inhibition in assay [2] of 40.2%. Moreover, the Activity (mmolequiv/mmol) was determined as 0.88 in assay [7] and 1.51 in assay [8].

`CC(C)(C)c1cc(/C=C/C(=O)NCCC2CCN(Cc3ccccc3Cl)CC2)cc(C(C)(C)C)c1O`: the IC50 on Acetylcholinesterase [1] was 0.59 µM; against Acetylcholinesterase [3] it was 2.44 µM; on Cholinesterase, “Not Active”; in [4] it was 72.1 µM; in assay [5], 9.8 µM; in [6] it was 80.2 µM. The molecule further returned an inhibition in assay [2] of 35.5%. Moreover, the figures for the Activity (mmolequiv/mmol) in assay [7] and in assay [8] were 0.64 and 1.6, respectively.

For the molecule `CC(C)(C)c1cc(/C=C/C(=O)NCCC2CCN(Cc3ccc(F)c(F)c3)CC2)cc(C(C)(C)C)c1O`, the IC50 against Acetylcholinesterase [1] is 0.42 µM; against Acetylcholinesterase [3] it was 1.62 µM; on Cholinesterase, “Not Active”; in assay [4] it was 64.5 µM; in assay [5], 9.3 µM; in assay [6], 65.7 µM. In assay [2], this molecule returned an inhibition of 39.9%. Further, the values for the Activity (mmolequiv/mmol) in [7] and in assay [8] were 0.79 and 1.57, respectively.

Take `CC(C)(C)c1cc(/C=C/C(=O)NCCC2CCN(Cc3cccc(F)c3)CC2)cc(C(C)(C)C)c1O`: the IC50 at Acetylcholinesterase [1] was 0.68 µM; at Acetylcholinesterase [3], 1.33 µM; at Cholinesterase it was “Not Active”; in [4], 58.4 µM; in assay [5], 6.5 µM; in assay [6], 55.2 µM. In assay [2], this molecule returned an inhibition of 37.9%. Besides, the Activity (mmolequiv/mmol) came to 0.78 in assay [7] and 1.59 in [8].

As for `Cc1ccc(CN2CCC(CCNC(=O)/C=C/c3cc(C(C)(C)C)c(O)c(C(C)(C)C)c3)CC2)cc1`, the IC50 at Acetylcholinesterase [1] is 0.72 µM; against Acetylcholinesterase [3], 2.01 µM; on Cholinesterase, “Not Active”; in assay [4], 70.1 µM; in assay [5], 8.9 µM; in assay [6], 60.4 µM. Besides, the inhibition in [2] was found to be 41.4%. The Activity (mmolequiv/mmol) is 0.89 in assay [7] and 1.57 in assay [8].

For the molecule `CC(C)(C)c1cc(/C=C/C(=O)NCCC2CCN(Cc3cccc(Cl)c3)CC2)cc(C(C)(C)C)c1O`, the IC50 against Acetylcholinesterase [1] is 0.74 µM; against Acetylcholinesterase [3] it was 2.54 µM; against Cholinesterase, “Not Active”; in [4], 65.1 µM; in assay [5] it was 8.7 µM; in assay [6], 83.1 µM. In [2], this molecule came in with an inhibition of 41.5%. In addition, the Activity (mmolequiv/mmol) worked out at 0.74 in [7] and 1.55 in [8].

`COc1ccc(CN2CCC(CCNC(=O)/C=C/c3cc(C(C)(C)C)c(O)c(C(C)(C)C)c3)CC2)cc1`: the IC50 at Acetylcholinesterase [1] is 0.85 µM; against Acetylcholinesterase [3], 2.12 µM; at Cholinesterase, “Not Active”; in [4], 72.5 µM; in assay [5], 6.7 µM; in assay [6], 61.2 µM. In [2], this molecule had an inhibition of 43.6%. Further, the results for the Activity (mmolequiv/mmol) in [7] and in assay [8] were 0.82 and 1.66, respectively.

Broadly, the IC50 is the concentration at which inhibition is half-maximal. The inhibition is the change of the read-out against control, counted positive when it falls.
